Literature values, collected in patent publication US11091735B2, “Polyvalent culture medium for anaerobic bacteria under aerobic conditions” (FONDATION MEDITERRANEE INFECTION, priority 2017, dated 2021).

Conditions: stock solution therefore prepared in ethanol

| solubility in water | Molecule |
| --- | --- |
| not soluble in water | Cc1cc(C(C)(C)C)c(O)c(C(C)(C)C)c1 [BHT, Butylhydroxytoluene] |
| not soluble in water | vitamin E |
